These are literature values, as cited in patent US20240415113A1, “COMPOSITION AND METHOD FOR ATTRACTING VESPID WASPS” (BanfieldBio Inc., priority 2023, published 2024).

Structures are written as SMILES.

One data set deals with western yellowjackets. Particulars: Oregon peach orchard, 10 days in 1969.
The next data set has as its system vespid wasps. Particulars: 50 μL heptyl butyrate and 1 g chicken meat extract, separately or together in the receiving chamber.

Consider `CCCCCCCOC(=O)CCC` [Heptyl butyrate], for which the “western yellowjackets captured per trap” value in the data set on western yellowjackets is listed as “over 800 western yellowjackets per trap”. Also, in the data set with vespid wasps, the “trap catch comparison in words” value is listed as “impeded entry into traps baited with the chicken extract”.
